Results reported in patent publication US5100776A, “Immunological detection process for herbicides” (Dr. Pfeiffer Bioanalytik KG, priority 1987, dated 1992).

tested on: antibody (high specificity for atrazine); test: Cross-reactivity of triazines and other herbicides in competitive enzyme immunoassay (inhibition of enzyme tracer binding); set-up: species or system rabbits; conditions: Cross-activity at a concentration of 2 ppb; inhibition of the enzymatic detection system
Source text: For the preparation of an antibody A, which is preferably directed against the side [drawing 3] of the atrazine molecule, at first the methylthioether group of the triazine ametryn is sulfoxidized with peroxy acid and then the modified ametryn is coupled directly with the beef serum albumin. In the analogous way, for the development of an antibody B, which is preferentially directed against the side: [drawing 4] of the atrazine molecule, one of the ethylamino groups of the triazine simazine is bonded by the carbodiimide process to the protein. Lastly an antibody C which preferably responds to the side: [drawing 5] of the atrazine is produced by coupling the herbicide propazine via one of the isopropylamino groups with the carrier matrix.
The conjugates prepared as above are inoculated for the generation of antibodies A, B and C in laboratory animals (rabbits) which are then extracted from the sera of the immunized animals by known processes or by affinity chromatography by substituents according to formula (I).
The antibodies obtained are adsorbed on the polystyrene surface of the microtiter cavities. To this end, the antibodies are dissolved in carbonate buffer (Na2 CO3 /NaHCO3 : 50 mmol/liter; pH 9.6) and respectively 0.25 ml of the solution obtained is pipetted into the individual cavities of the microtiter plate. In the following incubation takes place overnight at room temperature and washing takes place next day with TBS buffer. The well covered plates are then stored dry at -20° C. For analysis 180 μl of the aqueous sample to be investigated (concentration of the substance investigated is from 1 μg/l to 200 mg/l) are poured into the cavities and respectively 50 μl enzyme tracer, a conjugate of alkaline phosphatase and a triazine, which is selected depending on the type of the antibody, are added in the cavities. If the detection is carried out with antibody A, ametryn is coupled with the enzyme, but if antibody B or antibody C are present, simazine or propazine are used.
The solutions are mixed by brief horizontal shaking of the microtiter plate. After a further incubation period of 1 hour at 20° C., by washing with TBS buffer (50 mmol/l tris-(hydroxymethyl)-aminomethane, 1 mmol/l MgCl2, 50 mmol/l NaCl, pH 7.8 with HCl, 0.05% of polyoxyethylene sorbitan monooleate) all the molecules which are not bonded on the antibody positions are removed. For the quantitative detection of the bonded enzyme tracer, respectively 125 μl phosphatase substrate solution (1 mg p-nitrophenylphosphate per ml carbonate buffer) are poured into the individual cavities. The enzyme reaction takes place at 20° C., but can be accelerated by incubation at higher temperature. The absorption of the solution in the individual cavities is measured by a vertical ray photometer on the wavelength […]. If it is wished to move into the range of higher sensitivities, overnight incubation at 4° C. is recommended. But it must be recalled that without special demands on reagent, device and spatial unit reproducible results in the ppt range are not attainable. The computation of the antigen concentration of the sample is based on the following background. The enzyme tracer bonds at first with the free antibody bonding positions, which are left over after incubation with the sample antigen. Thus in the presence of high concentrations of sample antigen only few enzyme tracers are bonded, but with lower concentration of sample antigens, on the other hand, many enzyme tracers are bonded. The amount of the bonded enzyme tracer is therefore a function of the sample antigen concentration. The absorption of the reacted substrate amount (color reaction from colorless to yellow) is used as the measurement magnitude for the bonding of the enzyme tracer.
Absorption ratio of unknown sample (B=AB AuB) and zero sample (BO=ABO -AuB):
B/BO=(AB -AuB l)/(ABO -AuB) […]

**Q.** How did the “inhibition (%)” value turn out when `CCNc1nc(NC(C)C)nc(SC)n1` [ametryn] was run?
**A.** Its value is 21.4%.

**Q.** How did the “inhibition (%)” value turn out when `CCNc1nc(Cl)nc(NC(C)C)n1` [atrazine, 2-chloro-4-ethylamino-6-isopropylamino-1,3,5-triazine] was run?
**A.** Its value is 6.0%.

**Q.** `CCC(C)n1c(=O)[nH]c(C)c(Br)c1=O` (stereo not drawn) [bromazile] was tested. Which “inhibition (%)” value did it give?
**A.** The value was 11.1%.

**Q.** How did the “inhibition (%)” value turn out when `CSc1nc(N)nc(NC(C)C)n1` [desethylametryn] was run?
**A.** The value was 16.8%.

**Q.** Which “inhibition (%)” value does the source give for `CCNc1nc(N)nc(SC)n1` [desisopropylametryn] here?
**A.** The value was 16.5%.

**Q.** For `O=C(Oc1ccccc1)n1c(C(F)(F)F)nc2cc(Cl)c(Cl)cc21` [fenazaflor], which “inhibition (%)” value is on record?
**A.** Its value is 4.4%.

**Q.** `CNC(=O)N(C)c1nc2ccccc2s1` [metabenzthiazuron] was tested. Which “inhibition (%)” value did it give?
**A.** The value was 8.3%.

**Q.** Which “inhibition (%)” value does the source give for `Cc1cccc(C)c1N(Cn1cccn1)C(=O)CCl` [metazachlor] here?
**A.** Its value is 15.2%.

**Q.** With `CSc1nnc(C(C)(C)C)c(=O)n1N` [metribuzine] as the compound, how does the “inhibition (%)” value read?
**A.** Its value is 6.7%.
